One assay addresses Hu PD-L1/PD-1 (Homo sapiens, UniProt Q9NZQ7). The assay can be described thus: Cell binding assay Hu PD-L1/PD-1 (Tables 11-13, cell line not given). In kind it is cell-based. On the procedure:
The ability of the macrocyclic peptides of the present disclosure to bind to Jurkat, mouse B cell line (LK35.2), and a human lung adenocarcinoma cell line (L2987) was investigated. Jurkat-PD-1 Cell Binding Assay. Phycoerythrin (PE) was covalently linked to the Ig epitope tag of human PD-L1-Ig and fluorescently-labeled PD-L1-Ig was used for binding studies with a Jurkat cell line over-expressing human PD-1 (Jurkat-PD-1). […] Cells were washed 3× in dPBS. Cells were resuspended in 200 μl of dPBS and binding was measured by flow cytometry. LK35.2-hPD-L1 Cell Binding Assay. Phycoerythrin (PE) was covalently linked to the Ig eptitope tag of human PD-1-Ig and fluorescently-labeled PD-1-Ig was used for binding studies with a mouse B cell line (LK35.2) stably over-expressing human PD-L1 (LK35.2-hPD-L1). Briefly, […] LK35.2-hPD-L1 cells were pre-incubated with inhibitor for 15 m in a 30 μl volume of RPMI supplemented with 2% fetal calf serum. 20 μl of PE-labeled PD-1-Ig (2 nM final), diluted in RPMI supplemented with 2% fetal calf serum, was dispensed on top of cells and inhibitor and binding was allowed to take place for 1 h at room temperature. Cells were washed 3× in dPBS. Cells were resuspended in 200 μl of dPBS and binding was measured by flow cytometry. L2987 Cellomics Cell Binding Assay. Phycoerythrin (PE) was covalently linked to the Ig eptitope tag of human PD-1-Ig and fluorescently-labeled PD-1-Ig was used for binding studies with a human lung adenocarcinoma cell line (L2987) which naturally expresses PD-L1. […] The following day, inhibitors were diluted in serum-free DMEM and 25 μl was dispensed on top of cells. […] Samples were incubated for 1 h at 37° C. followed by 2 washes in dPBS and fixation for 30 m with 4% paraformaldehyde. Samples were further washed 2× in dPBS. Hoechst (final 1 μg/ml) was added to final wash to stain nuclei. Plates were processed using a Cellomics […]®.

For a further assay, the target named is T1, Human PD-L1/PD-1 (Homo sapiens, UniProt Q9NZQ7).
T1 construct: made in house; host or cells: HEK293T
T1 sequence (Q9NZQ7 with tags, fused parts or gaps): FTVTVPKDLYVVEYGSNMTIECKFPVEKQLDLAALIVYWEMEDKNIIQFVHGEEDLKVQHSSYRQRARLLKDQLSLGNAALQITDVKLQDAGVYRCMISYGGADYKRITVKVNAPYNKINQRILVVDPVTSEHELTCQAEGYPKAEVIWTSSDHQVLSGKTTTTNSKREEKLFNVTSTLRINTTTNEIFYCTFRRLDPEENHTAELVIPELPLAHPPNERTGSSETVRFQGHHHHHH
Kind of assay: HTRF PD-1-Ig/PD-L1-His binding assay (human PD-L1). To be noted: Table 8, Compound No. 1 variant macrocyclic peptides; read-out: HTRF Human PD-L1/PD-1 Binding Assay IC50. The essentials: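 Ig- and His-fused extracellular PD-1/PD-L1 binding in BSA/Tween-20 dPBS. HTRF with Eu anti-Ig (1 nM final) and APC anti-His (20 nM final).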
On the technique in general: Time-resolved FRET reads energy transfer from a long-lived donor to a nearby acceptor.

Where [1] appears, read: Table 13, Compound No. 71 series.

Structures are written as SMILES. Read-outs that look alike come from different tables or passages of the source. Positions of bridges follow the written chain, without caps; N, C: chain ends. Non-standard residues stand in square brackets, D forms with d. Residues, ends and D or L forms follow the SMILES beside them. ξ: configuration not given here. Bip = N[C@@H](Cc1ccc(-c2ccccc2)cc1)C(=O)O; Phe(4-Cl) = N[C@@H](Cc1ccc(Cl)cc1)C(=O)O; Phe(4-F) = N[C@@H](Cc1ccc(F)cc1)C(=O)O; NMeF = CN[C@@H](Cc1ccccc1)C(=O)O; NMeNle = CCCC[C@H](NC)C(=O)O; NMeV = CN[C@H](C(=O)O)C(C)C; dNle = CCCC[C@@H](N)C(=O)O; NMeA = CN[C@@H](C)C(=O)O; ξNMeA = CNC(C)C(=O)O; ξV = CC(C)C(N)C(=O)O; ξP = O=C(O)C1CCCN1; Sar = CNCC(=O)O Where only a bound is given, the exact number is not on record here.

The record followed here is patent publication US9850283B2, “Macrocyclic inhibitors of the PD-1/PD-L1 and CD80(B7-1)/PD-L1 protein/protein interactions” (BRISTOL-MYERS SQUIBB COMPANY, priority 2013, dated 2017).

Hu PD-L1/PD-1, sequence (Q9NZQ7 19-290): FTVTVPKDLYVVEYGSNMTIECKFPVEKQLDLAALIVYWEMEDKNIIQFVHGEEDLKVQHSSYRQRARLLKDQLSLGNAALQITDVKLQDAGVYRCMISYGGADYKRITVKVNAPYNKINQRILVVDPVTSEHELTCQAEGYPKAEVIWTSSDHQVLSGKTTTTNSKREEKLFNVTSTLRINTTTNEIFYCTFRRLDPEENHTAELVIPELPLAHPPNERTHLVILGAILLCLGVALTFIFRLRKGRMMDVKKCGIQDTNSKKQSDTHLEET

Regarding `CCCC[C@H]1C(=O)N(C)[C@@H](CCCC)C(=O)N[C@@H](CCCNC(=N)N)C(=O)N[C@H](C(=O)NCC(N)=O)CSCC(=O)N[C@@H](Cc2ccccc2)C(=O)N(C)[C@@H](C)C(=O)N[C@@H](CC(N)=O)C(=O)N2CCC[C@H]2C(=O)N[C@@H](Cc2cnc[nH]2)C(=O)N[C@@H](CC(C)C)C(=O)N(C)CC(=O)N[C@@H](Cc2c[nH]c3ccccc23)C(=O)N[C@@H](CO)C(=O)N[C@@H](CC(C)C)C(=O)N1C` [Compound No. 63] ({CH2CO}-F[NMeA]NPHL[Sar]WSL[NMeNle][NMeNle]RCG-NH2; thioether N-14), on Hu PD-L1/PD-1, the IC50 is greater than 10 µM. On to `CCCC[C@H]1C(=O)N(C)[C@@H](CCCC)C(=O)N[C@@H](CCCNC(=N)N)C(=O)N[C@H](C(=O)NCC(N)=O)CSCC(=O)N[C@@H](Cc2ccccc2)C(=O)N(C)[C@@H](C)C(=O)N[C@@H](CC(N)=O)C(=O)N2CCCC2C(=O)N[C@@H](C)C(=O)N[C@@H](CC(C)C)C(=O)N(C)CC(=O)N[C@@H](Cc2c[nH]c3ccccc23)C(=O)N[C@@H](CO)C(=O)N[C@@H](Cc2c[nH]c3ccccc23)C(=O)N1C` (some centres unmarked) [Compound No. 10] ({CH2CO}-F[NMeA]N[ξP]AL[Sar]WSW[NMeNle][NMeNle]RCG-NH2; thioether N-14), for which the IC50 at Hu PD-L1/PD-1 is 0.082 µM; on Human PD-L1/PD-1 it was 0.016 µM.

As for `CCCC[C@H]1C(=O)N[C@@H](CCCNC(=N)N)C(=O)N[C@H](C(=O)NCC(N)=O)CSCC(=O)N[C@@H](Cc2ccccc2)C(=O)N(C)[C@@H](C)C(=O)N[C@@H](CC(N)=O)C(=O)N2CCCC2C(=O)N[C@@H](Cc2cnc[nH]2)C(=O)N[C@@H](CC(C)C)C(=O)N(C)CC(=O)N[C@@H](Cc2c[nH]c3ccccc23)C(=O)N[C@@H](CO)C(=O)N[C@@H](Cc2c[nH]c3ccccc23)C(=O)N(C)[C@@H](C)C(=O)N1C` (some centres unmarked) [Compound No. 19] ({CH2CO}-F[NMeA]N[ξP]HL[Sar]WSW[NMeA][NMeNle]RCG-NH2; thioether N-14), the IC50 was 0.134 µM on Hu PD-L1/PD-1 and 0.033 µM at Human PD-L1/PD-1.

Regarding `CCCC[C@H]1C(=O)N(C)[C@@H](CCCC)C(=O)N[C@@H](CCCNC(=N)N)C(=O)N[C@H](C(=O)NCC(N)=O)CSCC(=O)N[C@@H](Cc2ccccc2)C(=O)N(C)C(C)C(=O)N[C@@H](CC(N)=O)C(=O)N2CCC[C@H]2C(=O)N[C@@H](Cc2cnc[nH]2)C(=O)N[C@@H](CC(C)C)C(=O)N[C@@H](Cc2cnc[nH]2)C(=O)N[C@@H](Cc2c[nH]c3ccccc23)C(=O)N[C@@H](CO)C(=O)N[C@@H](Cc2c[nH]c3ccccc23)C(=O)N1C` (some centres unmarked) [Compound No. 53] ({CH2CO}-F[ξNMeA]NPHLHWSW[NMeNle][NMeNle]RCG-NH2; thioether N-14), the values for the IC50 on Hu PD-L1/PD-1 and on Human PD-L1/PD-1 were 0.047 µM and 0.034 µM, respectively.

`CCCC[C@H]1C(=O)N(C)[C@@H](CCCC)C(=O)N[C@@H](CCCNC(=N)N)C(=O)N[C@H](C(=O)NCC(N)=O)CSCC(=O)N[C@@H](Cc2ccc(Cl)cc2)C(=O)N(C)[C@@H](C)C(=O)N[C@@H](CC(N)=O)C(=O)N2CCC[C@H]2C(=O)N[C@@H](Cc2cnc[nH]2)C(=O)N[C@@H](CC(C)C)C(=O)N(C)CC(=O)N[C@@H](Cc2c[nH]c3ccccc23)C(=O)N[C@@H](CO)C(=O)N[C@@H](Cc2c[nH]c3ccccc23)C(=O)N1C` [Compound No. 33] ({CH2CO}-[Phe(4-Cl)][NMeA]NPHL[Sar]WSW[NMeNle][NMeNle]RCG-NH2; thioether N-14): the IC50 at Hu PD-L1/PD-1 is 0.007 µM; on Human PD-L1/PD-1, 0.009 µM. On to `CCCC[C@H]1C(=O)N(C)[C@@H](CCCC)C(=O)N[C@@H](CCCNC(=N)N)C(=O)N[C@H](C(=O)NCC(N)=O)CSCC(=O)N[C@@H](Cc2ccccc2)C(=O)N(C)[C@@H](C(C)C)C(=O)N[C@@H](CC(N)=O)C(=O)N2CCC[C@H]2C(=O)N[C@@H](Cc2c[nH]cn2)C(=O)N[C@@H](CC(C)C)C(=O)N(C)CC(=O)N[C@@H](Cc2c[nH]c3ccccc23)C(=O)N[C@@H](CO)C(=O)N[C@@H](Cc2c[nH]c3ccccc23)C(=O)N1C` [Compound No. 41] ({CH2CO}-F[NMeV]NPHL[Sar]WSW[NMeNle][NMeNle]RCG-NH2; thioether N-14), for which the IC50 at Hu PD-L1/PD-1 was greater than 10 µM. The compound `CCCC[C@H]1C(=O)N(C)CC(=O)N[C@@H](CC(=O)O)C(=O)NC(C(C)C)C(=O)N(C)[C@@H](Cc2ccccc2)C(=O)N[C@@H](Cc2ccc(O)cc2)C(=O)N(C)CC(=O)N[C@@H](Cc2c[nH]c3ccccc23)C(=O)N[C@@H](C)C(=O)N[C@@H](CC(C)C)C(=O)N[C@H](C(=O)NCC(N)=O)CSCC(=O)N[C@@H](Cc2ccccc2)C(=O)N(C)[C@@H](Cc2ccccc2)C(=O)N1C` (some centres unmarked) [Compound No. 86] ({CH2CO}-F[NMeF][NMeNle][Sar]D[ξV][NMeF]Y[Sar]WALCG-NH2; thioether N-13) yielded an IC50 on Hu PD-L1/PD-1 (setting [1]) of 7.25 µM. `CCCC[C@H]1C(=O)N(C)[C@@H](CCCC)C(=O)N[C@@H](CCCNC(=N)N)C(=O)N[C@@H](C(=O)NCC(N)=O)CSCC(=O)N[C@@H](Cc2ccc(F)cc2)C(=O)N(C)[C@@H](C)C(=O)N[C@@H](CC(N)=O)C(=O)N2CCC[C@H]2C(=O)N[C@@H](Cc2cnc[nH]2)C(=O)N[C@@H](CC(C)C)C(=O)N(C)CC(=O)N[C@@H](Cc2c[nH]c3ccccc23)C(=O)N[C@@H](CO)C(=O)N[C@@H](Cc2c[nH]c3ccccc23)C(=O)N1C` [Compound No. 32] ({CH2CO}-[Phe(4-F)][NMeA]NPHL[Sar]WSW[NMeNle][NMeNle]R[dC]G-NH2; thioether N-14) had an IC50 at Hu PD-L1/PD-1 of 0.025 µM. On the same count and under the same terms, for `CCCC[C@H]1C(=O)N(C)[C@@H](CCCC)C(=O)N[C@@H](CCCNC(=N)N)C(=O)N[C@H](C(=O)NCC(N)=O)CSCC(=O)N[C@@H](C)C(=O)N(C)[C@@H](C)C(=O)N[C@@H](CC(N)=O)C(=O)N2CCCC2C(=O)N[C@@H](Cc2cnc[nH]2)C(=O)N[C@@H](CC(C)C)C(=O)N(C)CC(=O)N[C@@H](Cc2c[nH]c3ccccc23)C(=O)N[C@@H](CO)C(=O)N[C@@H](Cc2c[nH]c3ccccc23)C(=O)N1C` (some centres unmarked) [Compound No. 5] ({CH2CO}-A[NMeA]N[ξP]HL[Sar]WSW[NMeNle][NMeNle]RCG-NH2; thioether N-14) the value was greater than 10 µM.

At Hu PD-L1/PD-1 (setting [1]), `CCCC[C@H]1C(=O)N(C)CC(=O)N[C@@H](CC(=O)O)C(=O)N[C@@H](C(C)C)C(=O)N(C)[C@@H](Cc2ccccc2)C(=O)N[C@@H](Cc2ccc(O)cc2)C(=O)N(C)CC(=O)N[C@@H](Cc2c[nH]c3ccccc23)C(=O)N[C@@H](Cc2ccc(O)cc2)C(=O)N[C@@H](CC(C)C)C(=O)N[C@H](C(=O)NCC(N)=O)CSCC(=O)N[C@@H](C)C(=O)N(C)[C@@H](Cc2ccccc2)C(=O)N1C` [Compound No. 72] (HELM PEPTIDE1{[O=C(C[*:3])[*:2]].A.[meF].[CCCC[C@@H](C(=O)[*:2])N(C)[*:1]].[Sar].D.V.[meF].Y.[Sar].W.Y.L.C.G.[am]}$PEPTIDE1,PEPTIDE1,1:R3-14:R3$$$V2.0) had an IC50 greater than 10 µM. On to `CCCC[C@H]1C(=O)N(C)[C@@H](CCCC)C(=O)N[C@@H](CCCNC(=N)N)C(=O)N[C@H](C(=O)NCC(N)=O)CSCC(=O)N[C@@H](Cc2ccc(-c3ccccc3)cc2)C(=O)N(C)[C@@H](C)C(=O)N[C@@H](CC(N)=O)C(=O)N2CCC[C@H]2C(=O)N[C@@H](Cc2cnc[nH]2)C(=O)N[C@@H](CC(C)C)C(=O)N(C)CC(=O)N[C@@H](Cc2c[nH]c3ccccc23)C(=O)N[C@@H](CO)C(=O)N[C@@H](Cc2c[nH]c3ccccc23)C(=O)N1C` [Compound No. 28] ({CH2CO}-[Bip][NMeA]NPHL[Sar]WSW[NMeNle][NMeNle]RCG-NH2; thioether N-14), for which the IC50 on Hu PD-L1/PD-1 is 0.082 µM. Still for that read-out and setting: for `CCCC[C@H]1NC(=O)[C@H](Cc2c[nH]c3ccccc23)NC(=O)[C@H](CO)NC(=O)[C@H](Cc2c[nH]c3ccccc23)NC(=O)CN(C)C(=O)[C@H](CC(C)C)NC(=O)[C@H](Cc2cnc[nH]2)NC(=O)[C@@H]2CCCN2C(=O)[C@H](CC(N)=O)NC(=O)[C@H](C)N(C)C(=O)[C@H](Cc2ccccc2)NC(=O)CSC[C@@H](C(=O)NCC(N)=O)NC(=O)[C@H](CCCNC(=N)N)NC(=O)[C@H](CCCC)N(C)C1=O` [Compound No. 70] ({CH2CO}-F[NMeA]NPHL[Sar]WSW[dNle][NMeNle]RCG-NH2; thioether N-14) the value was greater than 10 µM; for `CCCC[C@H]1C(=O)N(C)[C@@H](CCCC)C(=O)N[C@@H](CCCNC(=N)N)C(=O)N[C@H](C(=O)NCC(N)=O)CSCC(=O)N[C@@H](Cc2ccccc2)C(=O)N(C)[C@@H](C)C(=O)N[C@@H](CC(N)=O)C(=O)N[C@@H](C)C(=O)N[C@@H](Cc2cnc[nH]2)C(=O)N[C@@H](CC(C)C)C(=O)N(C)CC(=O)N[C@@H](Cc2c[nH]c3ccccc23)C(=O)N[C@@H](CO)C(=O)N[C@@H](Cc2c[nH]c3ccccc23)C(=O)N1C` [Compound No. 9] ({CH2CO}-F[NMeA]NAHL[Sar]WSW[NMeNle][NMeNle]RCG-NH2; thioether N-14), 0.071 µM.
